Biological target: T1, PDE6 partially purified from bovine retinal rod and activated by trypsin (Bos taurus, UniProt P11541+P23439)
T1 construct: from tissue; host or cells: bovine retinal rod
T1 sequence (P11541 2-856 limits assumed): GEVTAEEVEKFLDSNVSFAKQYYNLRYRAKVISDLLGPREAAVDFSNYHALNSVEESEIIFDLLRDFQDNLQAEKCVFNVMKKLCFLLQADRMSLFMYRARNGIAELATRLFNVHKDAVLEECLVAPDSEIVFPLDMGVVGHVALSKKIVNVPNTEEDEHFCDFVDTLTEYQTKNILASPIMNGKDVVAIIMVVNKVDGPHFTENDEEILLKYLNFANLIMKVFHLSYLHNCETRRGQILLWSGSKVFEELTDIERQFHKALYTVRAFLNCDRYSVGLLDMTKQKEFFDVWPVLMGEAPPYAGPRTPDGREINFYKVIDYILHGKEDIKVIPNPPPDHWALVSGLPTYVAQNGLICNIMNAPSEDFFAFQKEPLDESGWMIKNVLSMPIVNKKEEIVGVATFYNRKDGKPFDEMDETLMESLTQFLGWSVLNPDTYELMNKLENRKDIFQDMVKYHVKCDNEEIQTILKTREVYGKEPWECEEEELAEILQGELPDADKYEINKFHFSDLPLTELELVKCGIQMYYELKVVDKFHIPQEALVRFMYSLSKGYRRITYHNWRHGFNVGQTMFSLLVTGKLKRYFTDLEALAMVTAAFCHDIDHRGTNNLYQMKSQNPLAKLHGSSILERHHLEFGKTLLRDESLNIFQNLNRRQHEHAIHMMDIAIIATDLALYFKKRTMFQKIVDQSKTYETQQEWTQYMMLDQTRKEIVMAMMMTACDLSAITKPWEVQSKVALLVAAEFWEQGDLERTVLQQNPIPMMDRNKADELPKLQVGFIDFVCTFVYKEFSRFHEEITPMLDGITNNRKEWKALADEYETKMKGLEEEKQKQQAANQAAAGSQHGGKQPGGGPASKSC
T1 sequence (P23439 2-850 limits assumed): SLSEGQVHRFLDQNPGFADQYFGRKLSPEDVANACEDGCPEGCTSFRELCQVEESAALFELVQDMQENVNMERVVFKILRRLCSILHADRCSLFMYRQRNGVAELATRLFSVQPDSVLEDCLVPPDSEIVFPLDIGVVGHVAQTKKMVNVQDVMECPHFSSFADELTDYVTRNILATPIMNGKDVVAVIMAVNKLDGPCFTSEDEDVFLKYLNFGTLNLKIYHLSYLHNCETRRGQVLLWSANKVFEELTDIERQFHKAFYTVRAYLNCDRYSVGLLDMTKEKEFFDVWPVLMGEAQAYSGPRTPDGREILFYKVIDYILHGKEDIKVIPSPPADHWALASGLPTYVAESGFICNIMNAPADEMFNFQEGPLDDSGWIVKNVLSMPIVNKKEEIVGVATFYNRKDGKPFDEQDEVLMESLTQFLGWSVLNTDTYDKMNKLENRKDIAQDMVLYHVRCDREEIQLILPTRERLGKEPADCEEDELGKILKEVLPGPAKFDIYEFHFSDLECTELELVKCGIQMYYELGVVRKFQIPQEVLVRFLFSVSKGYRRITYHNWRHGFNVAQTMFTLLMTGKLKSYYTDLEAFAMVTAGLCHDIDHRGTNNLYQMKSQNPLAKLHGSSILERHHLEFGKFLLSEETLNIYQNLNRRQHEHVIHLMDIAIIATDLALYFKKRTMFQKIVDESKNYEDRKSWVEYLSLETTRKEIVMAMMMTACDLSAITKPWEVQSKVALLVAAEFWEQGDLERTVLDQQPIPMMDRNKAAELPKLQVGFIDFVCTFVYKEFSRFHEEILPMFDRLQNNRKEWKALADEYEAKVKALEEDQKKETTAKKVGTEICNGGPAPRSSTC
Experiment: PDE6 biochemical enzyme assay ([3H]cGMP hydrolysis, scintillation counting)
Settings: Example 2; versus Viagra 0.3 μM
Experimental: PDE6 partially purified from bovine retinal rod and activated by trypsin was used. […] Each reaction was terminated by raising the temperature to 100° C. for 2 minutes. The resulting GMP was converted to guanosine by addition of 10 mg/ml snake venom nucleotidase and further incubated at 30° C. for 10 minutes. Unhydrolyzed cGMP was bound to AGI-X2 resin, and [^3H]guanosine remaining in the aqueous phase was quantitated by scintillation counting.

Compound: Cn1cc([S+](C)[O-])c(=O)c2ccc(F)cc21 (racemic) [Flosequinan, 7-fluoro-1-methyl-3-methylsulphinyl-4-quinolone]
- times more compound on a molar basis than Viagra for such levels of PDE6 inhibition: more than 300 times

Reference: US6995173B2, “Methods for the treatment of central nervous system disorders in certain patient groups” (R.T. Alamo Ventures I, LLC, priority 2001, dated 2006)
